This test has as its target S. aureus GyrB ATPase (Staphylococcus aureus, UniProt P0A0K8). As to the kind of experiment: S. aureus (SAU) GyrB ATPase inhibition, malachite green phosphate detection (E. coli GyrA + S. aureus GyrB). The following applies: compound concentration of 1.0 μM unless otherwise noted; average value where assay was carried out more than once; read-out: S. aureus (SAU) GyrB ATPase % Inhibition. In kind it is biochemical. The method in brief: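 Phosphate from ATP hydrolysis (500 μM ATP) read as malachite green/molybdate absorbance at 650 nm after acid quench. Reaction: 1.25 nM S. aureus GyrB plus 1.25 nM E. coli GyrA, sheared DNA, Hepes pH 7.5 with Mg2+. IC50 fitted over 10 concentrations, normalised to DMSO (2%) and novobiocin (2 μM) controls.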
Chain of S. aureus GyrB ATPase (P0A0K8 whole entry): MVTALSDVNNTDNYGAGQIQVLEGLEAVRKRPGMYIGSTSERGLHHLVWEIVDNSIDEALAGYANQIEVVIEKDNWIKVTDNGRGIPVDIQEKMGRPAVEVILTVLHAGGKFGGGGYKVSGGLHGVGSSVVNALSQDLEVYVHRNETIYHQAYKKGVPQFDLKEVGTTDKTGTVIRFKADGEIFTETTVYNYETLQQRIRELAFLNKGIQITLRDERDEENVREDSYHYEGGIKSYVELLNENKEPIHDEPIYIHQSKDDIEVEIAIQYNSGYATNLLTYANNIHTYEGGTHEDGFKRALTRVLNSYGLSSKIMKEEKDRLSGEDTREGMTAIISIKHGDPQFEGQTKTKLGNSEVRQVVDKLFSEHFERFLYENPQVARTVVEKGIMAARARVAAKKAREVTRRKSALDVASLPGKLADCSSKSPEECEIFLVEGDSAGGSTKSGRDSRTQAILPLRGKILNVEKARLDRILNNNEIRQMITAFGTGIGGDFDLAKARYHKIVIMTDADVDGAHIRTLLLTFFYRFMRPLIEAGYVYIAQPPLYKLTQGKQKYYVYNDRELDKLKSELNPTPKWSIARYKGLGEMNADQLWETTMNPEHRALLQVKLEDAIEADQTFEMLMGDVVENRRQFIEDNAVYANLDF
Chain of S. aureus GyrB ATPase (P0AES4 whole entry, further chain): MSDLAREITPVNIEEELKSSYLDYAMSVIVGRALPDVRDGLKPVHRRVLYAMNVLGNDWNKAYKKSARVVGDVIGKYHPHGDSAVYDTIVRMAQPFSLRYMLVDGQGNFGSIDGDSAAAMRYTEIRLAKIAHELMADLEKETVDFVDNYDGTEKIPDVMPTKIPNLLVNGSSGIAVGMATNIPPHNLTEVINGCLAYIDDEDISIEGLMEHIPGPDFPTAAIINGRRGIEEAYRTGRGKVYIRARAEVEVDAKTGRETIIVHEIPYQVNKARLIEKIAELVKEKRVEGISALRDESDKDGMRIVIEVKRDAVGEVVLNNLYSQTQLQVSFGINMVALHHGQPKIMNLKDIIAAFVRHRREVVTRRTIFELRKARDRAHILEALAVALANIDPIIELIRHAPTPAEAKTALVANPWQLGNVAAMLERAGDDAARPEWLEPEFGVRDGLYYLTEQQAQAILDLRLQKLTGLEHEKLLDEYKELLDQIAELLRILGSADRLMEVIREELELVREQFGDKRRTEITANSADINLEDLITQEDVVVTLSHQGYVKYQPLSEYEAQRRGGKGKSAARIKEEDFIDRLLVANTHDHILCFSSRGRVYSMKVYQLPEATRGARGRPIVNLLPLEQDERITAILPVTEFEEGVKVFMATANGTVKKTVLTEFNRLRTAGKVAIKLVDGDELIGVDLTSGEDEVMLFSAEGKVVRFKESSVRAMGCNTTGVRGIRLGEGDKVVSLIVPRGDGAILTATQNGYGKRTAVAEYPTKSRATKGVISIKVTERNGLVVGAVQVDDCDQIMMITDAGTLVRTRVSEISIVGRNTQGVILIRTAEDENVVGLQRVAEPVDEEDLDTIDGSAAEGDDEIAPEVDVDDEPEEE
Consider `CCNC(=O)Nc1cc(-c2nc(-c3ccccc3)cs2)c(-c2cc(-c3nnc(C)o3)nc(N3CCOCC3)c2)cn1` [Example 89, 1-ethyl-3-(2′-(5-methyl-1,3,4-oxadiazol-2-yl)-6′-morpholino-4-(4-phenylthiazol-2-yl)-3,4′-bipyridin-6-yl)urea], for which the inhibition at 1 µM is 87%.
Take `CCNC(=O)Nc1cc(-c2nc(C(F)(F)F)cs2)c(-c2cc(OC3CCN(C)CC3)nc(-c3n[nH]c(=O)o3)c2)cn1` [Example 90, 1-ethyl-3-(2′-(1-methylpiperidin-4-yloxy)-6′-(5-oxo-4,5-dihydro-1,3,4-oxadiazol-2-yl)-4-(4-(trifluoromethyl)thiazol-2-yl)-3,4′-bipyridin-6-yl)urea]: the inhibition at 1 µM turned out to be 116%.
With `CCNC(=O)Nc1cc(-c2nc(C(F)(F)F)cs2)c(-c2cc(OCCN(C)C)nc(-c3n[nH]c(=O)o3)c2)cn1` [Example 92, 1-(2′-(2-(dimethylamino)ethoxy)-6′-(5-oxo-4,5-dihydro-1,3,4-oxadiazol-2-yl)-4-(4-(trifluoromethyl)thiazol-2-yl)-3,4′-bipyridin-6-yl)-3-ethylurea], the inhibition at 1 µM turned out to be 104%.
Regarding `CCNC(=O)Nc1cc(-c2nc(-c3ccccc3)cs2)c(-c2cncc(-c3nnc(C)o3)c2)cn1` [Example 94, 1-ethyl-3-(5′-(5-methyl-1,3,4-oxadiazol-2-yl)-4-(4-phenylthiazol-2-yl)-3,3′-bipyridin-6-yl)urea], the inhibition at 1 µM amounted to 98%.
On to `CCNC(=O)Nc1cc(-c2nc(-c3ccccc3)cs2)c(-c2ccnc(-c3n[nH]c(=O)o3)c2)cn1` [Example 95, 1-ethyl-3-(2′-(5-oxo-4,5-dihydro-1,3,4-oxadiazol-2-yl)-4-(4-phenylthiazol-2-yl)-3,4′-bipyridin-6-yl)urea], for which the inhibition at 1 µM came out at 99%.
The figure for `CCNC(=O)Nc1cc(-c2nc(-c3ccccc3)cs2)c(-c2ccnc(-c3nnc(C)o3)c2)cn1` [Example 96, 1-ethyl-3-(2′-(5-methyl-1,3,4-oxadiazol-2-yl)-4-(4-phenylthiazol-2-yl)-3,4′-bipyridin-6-yl)urea] is 100%.
`CCNC(=O)Nc1cc(-c2nc(-c3ccccc3)cs2)c(-c2nc(-c3ncnn3C)c(-c3nnc(C)o3)s2)cn1` [Example 97, 1-ethyl-3-(5-(5-(5-methyl-1,3,4-oxadiazol-2-yl)-4-(1-methyl-1H-1,2,4-triazol-5-yl)thiazol-2-yl)-4-(4-phenylthiazol-2-yl)pyridin-2-yl)urea]: the inhibition at 1 µM was 99%.
On to `CCNC(=O)Nc1cc(-c2nc(-c3ccccc3)cs2)c(-c2nc(-c3ncccn3)c(-c3nnc(C)o3)s2)cn1` [Example 98, 1-ethyl-3-(5-(5-(5-methyl-1,3,4-oxadiazol-2-yl)-4-(pyrimidin-2-yl)thiazol-2-yl)-4-(4-phenylthiazol-2-yl)pyridin-2-yl)urea], for which the inhibition at 1 µM turned out to be 100%.
Regarding `CCNC(=O)Nc1cc(-c2nc(C(F)(F)F)cs2)c(-c2cc(-c3n[nH]c(=O)o3)cnc2OCCN2CCN(C)CC2)cn1` [Example 99, 1-Ethyl-3-(2′-(2-(4-methylpiperazin-1-yl)ethoxy)-5′-(5-oxo-4,5-dihydro-1,3,4-oxadiazol-2-yl)-4-(4-(trifluoromethyl)thiazol-2-yl)-3,3′-bipyridin-6-yl)urea], the inhibition at 1 µM worked out at 97%.
Turning to `CCNC(=O)Nc1cc(-c2nc(C(F)(F)F)cs2)c(-c2cc(-c3n[nH]c(=O)o3)cnc2OCCN(C)C)cn1` [Example 100, 1-(2′-(2-(Dimethylamino)ethoxy)-5′-(5-oxo-4,5-dihydro-1,3,4-oxadiazol-2-yl)-4-(4-(trifluoromethyl)thiazol-2-yl)-3,3′-bipyridin-6-yl)-3-ethylurea], the inhibition at 1 µM was 98%.
Consider `CCNC(=O)Nc1cc(-c2nc(C(F)(F)F)cs2)c(-c2cc(-c3n[nH]c(=O)o3)cnc2OC)cn1` [Example 101, 1-Ethyl-3-(2′-methoxy-5′-(5-oxo-4,5-dihydro-1,3,4-oxadiazol-2-yl)-4-(4-(trifluoromethyl)thiazol-2-yl)-3,3′-bipyridin-6-yl)urea], for which the inhibition at 1 µM stood at 97%.
With `CCNC(=O)Nc1cc(-c2nc(C(F)(F)F)cs2)c(-c2cc(-c3n[nH]c(=O)o3)cnc2OCCN2CCOCC2)cn1` [Example 102, 1-Ethyl-3-(2′-(2-morpholinoethoxy)-5′-(5-oxo-4,5-dihydro-1,3,4-oxadiazol-2-yl)-4-(4-(trifluoromethyl)thiazol-2-yl)-3,3′-bipyridin-6-yl)urea] the figure was 92%; with `CCNC(=O)Nc1cc(-c2nc(-c3ccccn3)cs2)c(-c2cncc(-c3nnc(C)o3)c2)cn1` [Example 104, 1-Ethyl-3-(5′-(5-methyl-1,3,4-oxadiazol-2-yl)-4-(4-(pyridin-2-yl)thiazol-2-yl)-3,3′-bipyridin-6-yl)urea], 98%; with `CCNC(=O)Nc1cc(-c2nc(-c3ccccn3)cs2)c(-c2cncc(S(N)(=O)=O)c2)cn1` [Example 105, 6′-(3-Ethylureido)-4′-(4-(pyridin-2-yl)thiazol-2-yl)-3,3′-bipyridine-5-sulfonamide], 101%.
Turning to `CCNC(=O)Nc1cc(-c2nc(-c3ccccn3)cs2)c(-c2ccnc(-c3n[nH]c(=O)o3)c2)cn1` [Example 106, 1-Ethyl-3-(2′-(5-oxo-4,5-dihydro-1,3,4-oxadiazol-2-yl)-4-(4-(pyridin-2-yl)thiazol-2-yl)-3,4′-bipyridin-6-yl)urea], the inhibition at 1 µM came to 102%.
For the compound `CCNC(=O)Nc1cc(-c2cnn(CC(C)C)c2)c(-c2cncc(-c3n[nH]c(=O)o3)c2)cn1` [Example 107, 1-Ethyl-3-(4-(1-isobutl-1H-pyrazol-4-yl)-5′-(5-oxo-4,5-dihydro-1,3,4-oxadiazol-2-yl)-3,3′-bipyridin-6-yl)urea], the inhibition at 1 µM was found to be 97%.
`CCNC(=O)Nc1cc(-c2ccc(N3CCOCC3)cc2)c(-c2cncc(-c3n[nH]c(=O)o3)c2)cn1` [Example 108, 1-Ethyl-3-(4-(4-morpholinophenyl)-5′-(5-oxo-4,5-dihydro-1,3,4-oxadiazol-2-yl)-3,3′-bipyridin-6-yl)urea]: the inhibition at 1 µM came out at 103%.
For the compound `CCNC(=O)Nc1cc(-c2nc(C(F)(F)F)cs2)c(-c2cc(-c3n[nH]c(=O)o3)cnc2OC2CCNCC2)cn1` [Example 109, 1-Ethyl-3-{5′-(5-oxo-4,5-dihydro-1,3,4-oxadiazol-2-yl)-2′-(piperidin-4-yloxy)-4-[4-(trifluoromethyl)-1,3-thiazol-2-yl]-3,3′-bipyridin-6-yl}urea], the inhibition at 1 µM amounted to 98%.
For `CCNC(=O)Nc1cc(-c2nc(C(F)(F)F)cs2)c(-c2cc(-c3nnc(C)o3)cnc2OC2CCNCC2)cn1` [Example 110, 1-Ethyl-3-{5′-(5-methyl-1,3,4-oxadiazol-2-yl)-2′-(piperidin-4-yloxy)-4-[4-(trifluoromethyl)-1,3-thiazol-2-yl]-3,3′-bipyridin-6-yl}urea], the inhibition at 1 µM stood at 95%.
With `CCNC(=O)Nc1cc(-c2nc(C(F)(F)F)cs2)c(-c2cc(-c3n[nH]c(=O)o3)cnc2OCCC(=O)O)cn1` [Example 111, 3-({6′-[(ethylcarbamoyl)amino]-5-(5-oxo-4,5-dihydro-1,3,4-oxadiazol-2-yl)-4′-[4-(trifluoromethyl)-1,3-thiazol-2-yl]-3,3′-bipyridin-2-yl}oxy)propanoic acid] the figure was 106%; with `CCNC(=O)Nc1cc(-c2nc(C(F)(F)F)cs2)c(-c2cc(-c3n[nH]c(=O)o3)cnc2OCC2CCOCC2)cn1` [Example 112, 1-Ethyl-3-{5′-(5-oxo-4,5-dihydro-1,3,4-oxadiazol-2-yl)-2′-(tetrahydro-2H-pyran-4-ylmethoxy)-4-[4-(trifluoromethyl)-1,3-thiazol-2-yl]-3,3′-bipyridin-6-yl}urea], 95%; with `CCNC(=O)Nc1cc(-c2nc(C(F)(F)F)cs2)c(-c2cc(-c3nnc(C)o3)cnc2OCC2CCOCC2)cn1` [Example 113, 1-Ethyl-3-{5′-(5-methyl-1,3,4-oxadiazol-2-yl)-2′-(tetrahydro-2H-pyran-4-ylmethoxy)-4-[4-(trifluoromethyl)-1,3-thiazol-2-yl]-3,3′-bipyridin-6-yl}urea], 45%.
The figure for `CCNC(=O)Nc1cc(-c2nc(C(F)(F)F)cs2)c(-c2cc(-c3nnc(C)o3)cnc2OC(C)CN(C)C)cn1` (stereo not shown) [Example 114, 1-(2′-(1-(Dimethylamino)propan-2-yloxy)-5′-(5-methyl-1,3,4-oxadiazol-2-yl)-4-(4-(trifluoromethyl)thiazol-2-yl)-3,3′-bipyridin-6-yl)-3-ethylurea] is 97%.
For `CCNC(=O)Nc1cc(-c2nc(C(F)(F)F)cs2)c(-c2cc(-c3nnc(C)o3)cnc2OCCN(CC)CC)cn1` [Example 115, 1-(2′-(2-(diethylamino)ethoxy)-5′-(5-methyl-1,3,4-oxadiazol-2-yl)-4-(4-(trifluoromethyl)thiazol-2-yl)-3,3′-bipyridin-6-yl)-3-ethylurea], the inhibition at 1 µM came out at 96%.
As to `CCNC(=O)Nc1cc(-c2nc(C(F)(F)F)cs2)c(-c2cc(-c3nnc(C)o3)cnc2OCCN(C(C)C)C(C)C)cn1` [Example 116, 1-(2′-(2-(diisopropylamino)ethoxy)-5′-(5-methyl-1,3,4-oxadiazol-2-yl)-4-(4(trifluoromethyl)thiazol-2-yl)-3,3′-bipyridin-6-yl)-3-ethylurea], the inhibition at 1 µM was 90%.
With `CCNC(=O)Nc1cc(-c2nc(C(F)(F)F)cs2)c(-c2cc(-c3nnc(C)o3)cnc2OC2CC(C)(C)N(C)C(C)(C)C2)cn1` [Example 117, 1-Ethyl-3-(5′-(5-methyl-1,3,4-oxadiazol-2-yl)-2′-(1,2,2,6,6-pentamethylpiperidin-4-yloxy)-4-(4-(trifluoromethyl)thiazol-2-yl)-3,3′-bipyridin-6-yl)urea], the inhibition at 1 µM was 105%.
The figure for `CCNC(=O)Nc1cc(-c2nc(C(F)(F)F)cs2)c(-c2cc(-c3n[nH]c(=O)o3)cnc2OC(C)CN(C)C)cn1` (stereo not shown) [Example 118] is 118%; for `CCNC(=O)Nc1cc(-c2nc(C(F)(F)F)cs2)c(-c2cc(-c3n[nH]c(=O)o3)cnc2OCCN(CC)CC)cn1` [Example 119] it is 96%.

For orientation: inhibition means the drop in the measured response relative to a control, in per cent.

For the origin of these results see patent US20120101100A1 (priority 2008, published 2012).
